Assay results reported in ChEMBL document CHEMBL1201862, “PubChem BioAssay data set” (2004).
Values joined by “and” are separate entries in the source; they are usually repeats but may differ in a detail not shown here. Equal entries are not always repeated. Active and inactive are the calls of the source. Peptide text beside a SMILES is read from it. * marks the point of attachment. Cbz = O=C(OCc1ccccc1)*; CH2Cl = ClC*

Key:
[1] = viability of uninfected HEp-2 cells – cell-based, HTS, cytotoxicity control for RSV inhibitor project, dose response (AID 2410); assay type: functional; details: human respiratory syncytial virus
Vero [2] = test: cells; assay type: functional, cell-based; details: Chlorocebus sabaeus
[3] = target: T1, Adenosylmethionine-8-amino-7-oxononanoate aminotransferase (Mycobacterium tuberculosis, UniProt P9WQ81); test: Mycobacterium tuberculosis BioA enzyme inhibitor Measured in Biochemical System Using Plate Reader - 2163-02_Inhibitor_Dose_CherryPick_Activity.; assay type: functional, Mycobacterium tuberculosis UT205
T1 sequence (P9WQ81 whole entry): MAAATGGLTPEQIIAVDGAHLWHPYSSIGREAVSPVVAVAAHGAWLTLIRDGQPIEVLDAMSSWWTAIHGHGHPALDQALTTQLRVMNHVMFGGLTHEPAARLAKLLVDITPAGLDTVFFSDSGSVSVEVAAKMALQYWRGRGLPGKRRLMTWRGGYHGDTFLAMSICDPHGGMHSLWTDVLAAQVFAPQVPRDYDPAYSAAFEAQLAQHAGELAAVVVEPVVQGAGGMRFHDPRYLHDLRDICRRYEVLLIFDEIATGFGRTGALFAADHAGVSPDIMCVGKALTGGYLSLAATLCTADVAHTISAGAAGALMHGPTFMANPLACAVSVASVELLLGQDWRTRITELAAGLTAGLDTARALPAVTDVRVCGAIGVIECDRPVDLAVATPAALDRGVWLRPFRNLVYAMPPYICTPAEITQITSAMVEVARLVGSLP

[4] = decrease of insulin promoter-GFP reporter – imaging, high-content screening, mouse beta cells (AID 1628); assay type: functional; details: MIN6
[5] = MIN6 cell viability loss – mouse insulinoma, cytotoxicity control, dose response (AID 2122); assay type: functional;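 also: confirmatory high-throughput counterscreen run to flag cytotoxic compounds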
[6] = target: T2, Ubiquitin-conjugating enzyme E2 N (Homo sapiens, UniProt P61088); assay type: functional;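 also: Dose-response confirmation in a TR-FRET assay detecting UBC13-driven polyubiquitin chain formation, inhibition measured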
T2 sequence (P61088 whole entry): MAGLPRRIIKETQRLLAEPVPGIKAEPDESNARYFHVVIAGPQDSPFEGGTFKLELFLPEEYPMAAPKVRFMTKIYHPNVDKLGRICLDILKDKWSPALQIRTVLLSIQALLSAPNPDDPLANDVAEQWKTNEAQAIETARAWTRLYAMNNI

Fatty acid synthase [7] = target: T3, Fatty acid synthase (Homo sapiens, UniProt P49327); test: inhibition of human FAS-TE enzyme activity – biochemical, kinetic fluorescence intensity, dose response (AID 624326); assay type: functional;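 also: rate of fluorescence rise from hydrolysis of a fluorogenic O-methyl fluorescein ester substrate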
Fatty acid synthase [8] = target: T3, Fatty acid synthase; test: inhibition of human FAS-TE enzyme activity – biochemical, endpoint fluorescence intensity, uHTS hits, dose response (AID 624327); assay type: functional;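 also: fluorescence from hydrolysis of an O-methyl fluorescein acyl ester substrate by the enzyme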
[9] = target: T4, Microphthalmia-associated transcription factor (Homo sapiens, UniProt O75030); test: reducers of TRPM1 reporter luminescence, concentration series – cell-based, SK-MEL-5, cherry-picked, set 3, MITF inhibitor project, dose response (AID 493073); assay type: functional;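 also: SK-MEL-5 melanoma cells with luciferase driven by the MITF target TRPM1 promoter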
T4 sequence (O75030 whole entry): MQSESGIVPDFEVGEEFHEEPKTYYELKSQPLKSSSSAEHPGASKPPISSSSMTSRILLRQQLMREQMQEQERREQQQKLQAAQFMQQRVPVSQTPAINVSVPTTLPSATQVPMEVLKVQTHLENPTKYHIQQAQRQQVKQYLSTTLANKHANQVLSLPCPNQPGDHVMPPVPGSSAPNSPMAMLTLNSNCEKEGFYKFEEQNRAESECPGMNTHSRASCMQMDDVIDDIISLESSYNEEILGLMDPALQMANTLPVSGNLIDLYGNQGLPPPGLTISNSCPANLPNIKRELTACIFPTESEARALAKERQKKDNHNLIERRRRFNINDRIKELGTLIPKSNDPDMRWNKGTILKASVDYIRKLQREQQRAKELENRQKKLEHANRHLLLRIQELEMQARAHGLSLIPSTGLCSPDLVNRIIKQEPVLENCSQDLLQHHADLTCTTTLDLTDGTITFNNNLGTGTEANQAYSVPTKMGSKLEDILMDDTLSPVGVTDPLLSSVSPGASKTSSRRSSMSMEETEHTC

[10] = target: T5, Voltage-gated N-type calcium channel alpha-1B subunit/Amyloid beta A4 precursor protein-binding family A member 1 (Homo sapiens, UniProt Q00975+Q02410); assay type: protein assay
Beta-lactamase [11] = target: Beta-lactamase (Pseudomonas aeruginosa, UniProt Q79MP6);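 also: biochemical dose-response test of metallo-beta-lactamase enzyme inhibition, read out by epi-absorbance; purified recombinant IMP-1 metallo-beta-lactamase with nitrocefin as substrate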
[12] = target: T6, Small ubiquitin-related modifier 1 (Homo sapiens, UniProt P63165); test: SUMO1 protein-protein binding blockers, potency – biochemical, FRET, dose response (AID 624383); assay type: functional; details: read-out: IC50_Mean
[13] = target: T6, Small ubiquitin-related modifier 1; test: SUMO1 protein interaction blockers, potency – biochemical, fluorescence polarization, uHTS hits, dose response (AID 624382); assay type: functional; details: read-out: IC50_Mean
[14] = target: T5, Voltage-gated N-type calcium channel alpha-1B subunit/Amyloid beta A4 precursor protein-binding family A member 1; assay type: protein assay; remark: listed apart in the source
Beta-lactamase [15] = target: Beta-lactamase (Salmonella choleraesuis (strain SC-B67), UniProt Q5J463)
[16] = target: DNA dC->dU-editing enzyme APOBEC-3G (Homo sapiens, UniProt Q9HC16); assay type: functional;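 also: Dose-response counterscreen measuring inhibition of APOBEC3G DNA deaminase activity, run while confirming APOBEC3A inhibitors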
[17] = target: DNA dC->dU-editing enzyme APOBEC-3A (Homo sapiens, UniProt P31941); test: Dose Response confirmation of small molecule APOBEC3A DNA Deaminase Inhibitors via a fluorescence-based single-stranded DNA deaminase assay. [Related pubchem assays (depositor defined):AID493011, AID493024]; assay type: functional
HEK293 [18] = test: cells; details: Homo sapiens
HEK293 [19] = test: cells; details: Homo sapiens; remark: listed apart in the source
[20] = target: Ras and Rab interactor 1/Tyrosine-protein kinase ABL1 (Homo sapiens, UniProt P00519+Q13671); assay type: functional;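 also: biochemical TR-FRET dose-response test measuring inhibition of binding between Rin1 and Abl proteins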
[21] = target: 5-hydroxytryptamine receptor 2A (Mus musculus, UniProt P35363); assay type: functional, cell-based;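 also: CHO-K1 cells with tagged receptor and beta-arrestin; agonist potency measured as compound-induced activation of the receptor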
Mu-type opioid receptor = Mu-type opioid receptor (Homo sapiens, UniProt P35372); assay type: functional, cell-based;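 also: U2OS cells with beta-arrestin recruitment to OPRM1 by beta-gal complementation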
[22] = target: T7, ATP-dependent translocase ABCB1 (Homo sapiens, UniProt P08183); test: inhibition of BCRP-mediated JC-1 efflux – Ig-MXP3 cells, flow cytometry, set 2, dose response (AID 504566); assay type: functional; details: read-out: EC50_MICROM_;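 also: flow cytometry median green fluorescence of retained JC-1 dye; potency of efflux pump inhibition measured as rising substrate retention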
[23] = target: T7, ATP-dependent translocase ABCB1; test: P-gp JC-1 efflux blockade concentration-response – Jurkat-DNR cells, flow cytometry, set 2, dose response (AID 504569); assay type: functional; details: read-out: EC50_MICROM_;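 also: potency of pump inhibitors that raise cellular JC-1 green fluorescence up to the nicardipine level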
Vero [24] = test: cells; assay type: functional; details: Chlorocebus sabaeus

5-hydroxytryptamine receptor 2A, sequence (P35363 whole entry): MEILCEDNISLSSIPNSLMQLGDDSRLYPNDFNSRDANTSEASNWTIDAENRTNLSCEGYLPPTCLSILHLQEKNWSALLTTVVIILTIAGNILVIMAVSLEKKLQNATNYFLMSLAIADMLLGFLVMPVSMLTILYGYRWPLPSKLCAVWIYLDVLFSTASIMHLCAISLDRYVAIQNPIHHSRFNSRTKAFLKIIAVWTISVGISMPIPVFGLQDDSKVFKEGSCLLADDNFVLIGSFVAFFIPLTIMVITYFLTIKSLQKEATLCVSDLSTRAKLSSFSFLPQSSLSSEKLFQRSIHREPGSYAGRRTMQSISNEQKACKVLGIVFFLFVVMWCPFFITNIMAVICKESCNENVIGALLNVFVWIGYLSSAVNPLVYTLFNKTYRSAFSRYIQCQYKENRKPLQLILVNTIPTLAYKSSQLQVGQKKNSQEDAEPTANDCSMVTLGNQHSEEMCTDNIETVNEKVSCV
Mu-type opioid receptor, sequence (P35372 whole entry): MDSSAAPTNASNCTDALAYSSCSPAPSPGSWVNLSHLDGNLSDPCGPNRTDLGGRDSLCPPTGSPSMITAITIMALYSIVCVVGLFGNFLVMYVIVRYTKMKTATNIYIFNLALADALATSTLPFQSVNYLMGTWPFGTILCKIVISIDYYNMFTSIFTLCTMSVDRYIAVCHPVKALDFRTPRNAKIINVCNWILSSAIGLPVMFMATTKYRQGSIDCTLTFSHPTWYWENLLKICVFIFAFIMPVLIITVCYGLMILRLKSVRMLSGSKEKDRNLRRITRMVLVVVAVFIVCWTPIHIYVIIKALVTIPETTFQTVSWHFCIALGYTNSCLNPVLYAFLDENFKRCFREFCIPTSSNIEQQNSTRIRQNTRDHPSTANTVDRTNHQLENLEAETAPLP
T7 sequence (P08183 whole entry): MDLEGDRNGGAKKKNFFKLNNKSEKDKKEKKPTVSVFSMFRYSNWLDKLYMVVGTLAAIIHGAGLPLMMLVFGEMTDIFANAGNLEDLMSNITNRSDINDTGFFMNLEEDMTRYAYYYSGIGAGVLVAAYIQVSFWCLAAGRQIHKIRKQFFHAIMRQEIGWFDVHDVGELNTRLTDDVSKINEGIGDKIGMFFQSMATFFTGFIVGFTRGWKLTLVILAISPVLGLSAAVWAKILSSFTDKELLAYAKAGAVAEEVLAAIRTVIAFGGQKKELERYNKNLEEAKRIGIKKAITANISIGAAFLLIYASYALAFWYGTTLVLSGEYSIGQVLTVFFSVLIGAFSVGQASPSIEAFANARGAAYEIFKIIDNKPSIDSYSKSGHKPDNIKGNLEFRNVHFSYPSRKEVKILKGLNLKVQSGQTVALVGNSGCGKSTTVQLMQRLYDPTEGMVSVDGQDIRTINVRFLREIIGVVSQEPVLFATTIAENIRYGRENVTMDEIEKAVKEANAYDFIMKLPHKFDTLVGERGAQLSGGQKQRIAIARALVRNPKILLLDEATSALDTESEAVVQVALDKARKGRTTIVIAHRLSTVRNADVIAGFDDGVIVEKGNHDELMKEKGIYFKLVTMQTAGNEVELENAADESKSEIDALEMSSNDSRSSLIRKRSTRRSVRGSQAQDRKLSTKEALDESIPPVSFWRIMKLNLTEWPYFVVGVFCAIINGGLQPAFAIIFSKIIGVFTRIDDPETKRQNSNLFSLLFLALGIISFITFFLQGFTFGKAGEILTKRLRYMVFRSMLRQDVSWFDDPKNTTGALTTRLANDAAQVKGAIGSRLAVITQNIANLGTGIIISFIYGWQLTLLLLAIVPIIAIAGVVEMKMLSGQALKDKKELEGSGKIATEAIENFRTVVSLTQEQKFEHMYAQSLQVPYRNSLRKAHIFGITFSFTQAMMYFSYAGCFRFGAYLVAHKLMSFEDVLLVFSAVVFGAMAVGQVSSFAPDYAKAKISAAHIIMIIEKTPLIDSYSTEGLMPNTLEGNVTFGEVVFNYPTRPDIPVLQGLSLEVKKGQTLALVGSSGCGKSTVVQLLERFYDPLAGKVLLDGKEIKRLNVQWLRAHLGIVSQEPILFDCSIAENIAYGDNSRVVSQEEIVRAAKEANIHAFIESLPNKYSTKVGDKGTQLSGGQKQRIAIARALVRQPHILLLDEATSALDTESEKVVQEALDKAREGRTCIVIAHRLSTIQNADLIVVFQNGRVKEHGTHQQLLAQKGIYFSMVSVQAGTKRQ
T3 sequence (P49327 whole entry): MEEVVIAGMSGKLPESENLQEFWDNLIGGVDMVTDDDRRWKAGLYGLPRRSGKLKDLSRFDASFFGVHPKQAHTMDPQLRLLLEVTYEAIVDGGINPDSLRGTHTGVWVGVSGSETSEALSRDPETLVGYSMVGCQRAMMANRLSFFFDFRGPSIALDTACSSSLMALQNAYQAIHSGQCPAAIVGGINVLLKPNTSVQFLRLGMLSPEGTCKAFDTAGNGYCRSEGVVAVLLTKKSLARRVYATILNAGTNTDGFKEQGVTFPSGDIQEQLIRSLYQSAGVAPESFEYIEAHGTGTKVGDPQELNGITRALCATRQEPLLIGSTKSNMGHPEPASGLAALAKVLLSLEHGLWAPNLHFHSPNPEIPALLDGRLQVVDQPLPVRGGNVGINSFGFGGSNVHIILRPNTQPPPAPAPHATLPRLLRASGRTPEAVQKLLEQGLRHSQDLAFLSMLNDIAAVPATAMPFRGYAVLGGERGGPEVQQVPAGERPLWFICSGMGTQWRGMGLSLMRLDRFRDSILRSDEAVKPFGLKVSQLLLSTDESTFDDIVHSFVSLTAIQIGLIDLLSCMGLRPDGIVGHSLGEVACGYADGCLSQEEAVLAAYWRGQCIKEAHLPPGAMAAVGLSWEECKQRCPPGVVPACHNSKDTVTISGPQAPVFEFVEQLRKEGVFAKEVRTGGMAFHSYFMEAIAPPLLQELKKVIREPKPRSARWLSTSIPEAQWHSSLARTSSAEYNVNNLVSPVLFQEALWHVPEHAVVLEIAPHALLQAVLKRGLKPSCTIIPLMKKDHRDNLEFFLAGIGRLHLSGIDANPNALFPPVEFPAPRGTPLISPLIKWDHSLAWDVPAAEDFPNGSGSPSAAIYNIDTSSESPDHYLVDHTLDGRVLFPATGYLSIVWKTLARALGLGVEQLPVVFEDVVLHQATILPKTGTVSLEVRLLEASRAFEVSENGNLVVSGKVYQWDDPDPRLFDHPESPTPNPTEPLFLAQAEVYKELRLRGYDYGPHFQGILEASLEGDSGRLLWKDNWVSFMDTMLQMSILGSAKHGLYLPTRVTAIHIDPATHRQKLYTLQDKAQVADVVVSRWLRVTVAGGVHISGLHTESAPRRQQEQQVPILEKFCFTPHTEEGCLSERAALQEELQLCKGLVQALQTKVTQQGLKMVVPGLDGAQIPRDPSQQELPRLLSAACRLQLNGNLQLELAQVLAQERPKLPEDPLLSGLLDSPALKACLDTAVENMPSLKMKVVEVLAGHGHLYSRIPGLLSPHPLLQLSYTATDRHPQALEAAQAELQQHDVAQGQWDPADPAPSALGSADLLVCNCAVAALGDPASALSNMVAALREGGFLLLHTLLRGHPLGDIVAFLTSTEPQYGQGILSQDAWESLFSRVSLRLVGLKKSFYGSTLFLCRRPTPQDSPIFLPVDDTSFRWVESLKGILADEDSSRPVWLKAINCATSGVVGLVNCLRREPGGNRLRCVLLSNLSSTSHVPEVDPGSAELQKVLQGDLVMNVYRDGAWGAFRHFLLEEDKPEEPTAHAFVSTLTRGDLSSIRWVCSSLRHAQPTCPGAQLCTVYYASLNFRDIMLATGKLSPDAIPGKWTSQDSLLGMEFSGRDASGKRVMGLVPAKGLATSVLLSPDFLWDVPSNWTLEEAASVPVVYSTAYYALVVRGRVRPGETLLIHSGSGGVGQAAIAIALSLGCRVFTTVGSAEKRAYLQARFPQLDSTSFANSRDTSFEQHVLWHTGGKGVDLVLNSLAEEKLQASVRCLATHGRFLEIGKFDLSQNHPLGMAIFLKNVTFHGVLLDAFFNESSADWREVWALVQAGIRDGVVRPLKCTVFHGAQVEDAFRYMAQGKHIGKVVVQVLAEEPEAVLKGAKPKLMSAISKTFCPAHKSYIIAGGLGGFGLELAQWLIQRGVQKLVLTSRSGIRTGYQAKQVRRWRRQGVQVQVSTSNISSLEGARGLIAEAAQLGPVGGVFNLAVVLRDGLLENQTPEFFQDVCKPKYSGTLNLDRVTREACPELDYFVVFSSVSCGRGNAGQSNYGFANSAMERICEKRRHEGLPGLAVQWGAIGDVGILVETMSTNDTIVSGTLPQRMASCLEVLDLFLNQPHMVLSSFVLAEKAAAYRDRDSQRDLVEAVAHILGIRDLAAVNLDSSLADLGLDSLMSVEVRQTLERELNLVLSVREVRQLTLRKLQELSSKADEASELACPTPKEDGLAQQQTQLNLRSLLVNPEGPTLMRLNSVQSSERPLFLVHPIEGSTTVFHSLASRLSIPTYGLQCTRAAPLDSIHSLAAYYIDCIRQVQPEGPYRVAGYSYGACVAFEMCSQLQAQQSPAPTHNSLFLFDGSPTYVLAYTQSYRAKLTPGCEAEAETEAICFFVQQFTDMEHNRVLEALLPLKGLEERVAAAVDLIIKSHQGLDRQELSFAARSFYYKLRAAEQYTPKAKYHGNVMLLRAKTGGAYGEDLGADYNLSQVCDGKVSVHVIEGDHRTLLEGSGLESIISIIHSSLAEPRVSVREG
T6 sequence (P63165 whole entry): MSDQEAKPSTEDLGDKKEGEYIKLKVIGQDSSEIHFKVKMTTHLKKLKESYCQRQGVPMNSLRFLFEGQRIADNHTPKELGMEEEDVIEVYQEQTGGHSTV
Beta-lactamase (Pseudomonas aeruginosa, UniProt Q79MP6), sequence (Q79MP6 whole entry): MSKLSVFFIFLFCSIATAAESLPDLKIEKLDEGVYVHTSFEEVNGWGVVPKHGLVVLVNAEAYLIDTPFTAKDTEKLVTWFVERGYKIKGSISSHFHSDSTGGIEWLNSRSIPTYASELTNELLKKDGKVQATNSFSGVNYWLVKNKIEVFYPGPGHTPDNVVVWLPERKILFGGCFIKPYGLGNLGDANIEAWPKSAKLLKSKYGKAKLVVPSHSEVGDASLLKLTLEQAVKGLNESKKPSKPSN

SMILES: O=C(O)c1cccnc1Nc1ccc(Cl)cc1
- CC50 [1]: 14.7 µM (active)
- IC50 (cells): 7.51 µM (active)
- IC50 (Vero [2]): 17.3 µM (active)

SMILES: O=C(Nc1cccnc1)c1ccc(Oc2ccccc2)cc1
- AC50 [3]: 0.751 µM (active)

SMILES: CCOc1ccc2nc(NC3=NC(C)=CC(C)(C)N3)nc(C)c2c1
- IC50 [4]: 3.25 µM (active)
- IC50 [5]: 6.46 µM (active)
- IC50 [6]: > 20 µM (inactive)

SMILES: O=C(CNc1cc(S(=O)(=O)N2CCCC2)ccc1OCC(F)(F)F)Nc1ccc(SC(F)F)cc1
- IC50 [4]: 2.54 µM (active)
- IC50 [5]: 1.85 µM (active)
- IC50 (Fatty acid synthase [7]): 2.98 µM (active)
- IC50 (Fatty acid synthase [8]): 6.37 µM (active)

SMILES: CCSc1ccccc1C(=O)n1nnc2ccccc21
- AC50 [9]: 11.8 µM (active)

SMILES: Cc1ccc(Cn2c(C(C)Nc3nc(-c4ccc(C)cc4)cs3)nc3cc(Cl)c(Cl)cc32)cc1 (centres undefined)
- IC50 [10]: > 50 µM (inactive)
- IC50 (Beta-lactamase [11]): > 59.6 µM (inactive)
- IC50 [12]: 3.52 µM (active)
- IC50 [13]: > 66.6 µM (inactive)
- IC50 [14]: 4.57 µM (active)
- IC50 (Beta-lactamase [15]): > 59.6 µM (inactive)

SMILES: CN1CCC(N(C)S(=O)(=O)c2ccc(NC(=O)COc3ccc(Br)cc3Cl)cc2)CC1
- IC50 [16]: 14.2 µM (active)
- IC50 [17]: 10.4 µM (active)

SMILES: COc1cc(OC)c(-c2nn3c(C4CCCCC4)nnc3s2)cc1OC
- CC50 [1]: 33.1 µM (active)
- EC50 (HEK293 [18]): > 59.6 µM (inactive)
- EC50 (HEK293 [19]): > 59.6 µM (inactive)

SMILES: CN(C)C(=S)N=c1ssc(=S)n1Cc1cccnc1
- EC50 (HEK293 [18]): > 59.6 µM (inactive)
- EC50 (HEK293 [19]): > 59.6 µM (inactive)

SMILES: Cc1ccc(S(=O)(=O)N2CCN(C(=O)Cn3cnc4c3c(=O)n(C)c(=O)n4C)CC2)cc1C
- IC50 [20]: 21.5 µM (inactive)

SMILES: CN(c1ccc(OCC(=O)Nc2ccccc2C(=O)O)cc1)S(=O)(=O)c1ccc(Cl)cc1
- IC50 (Vero [2]): 20.1 µM (active)

SMILES: Nc1c(N(CCC2=CCCCC2)C(=O)COc2ccc([N+](=O)[O-])cc2)c(=O)[nH]c(=O)n1Cc1ccccc1
- AC50 [9]: 14.2 µM (active)

SMILES: COc1ccc(CN2CCN(C(=O)c3ccco3)CC2)c(OC)c1OC
- EC50 [21]: 6.39 µM (active)
- EC50 (Mu-type opioid receptor): 92.5 µM (inactive)

SMILES: Clc1ccc(CN2CCN(c3ccccc3)CC2)cn1
- EC50 [21]: 5.22 µM (active)
- EC50 (Mu-type opioid receptor): 92.5 µM (inactive)

SMILES: O=C(c1ccncc1)N1CCN(c2cc(-c3ccccc3)nc3cc(-c4cccc(Cl)c4)nn23)CC1
- EC50 [22]: 1.19 µM (active)
- EC50 [23]: 950 nM (active)

SMILES: CC(N)Cc1c[nH]c2ccc(Cl)cc12 (centres undefined)
- EC50 [21]: 1.64 µM (active)
- EC50 (Mu-type opioid receptor): 92.5 µM (inactive)

SMILES: CCNC(=O)C[C@H]1CC[C@@H]2[C@@H](COc3ccc(NC(=O)Nc4cccc(F)c4)cc3C(=O)N2C)O1
- AC50 [3]: 4.35 µM (active)

SMILES: O=C(c1ccccc1)N1CCN(c2cc(-c3ccccc3)nc3cc(-c4cccc(F)c4)nn23)CC1
- EC50 [22]: 2.41 µM (active)
- EC50 [23]: 5820 nM (active)

SMILES: CC(C)(C)[S@+]([O-])N1Cc2cc(C(=O)NCc3ccccc3F)nc(-c3cccc(-c4cccnc4)c3)c2[C@@H]1CCO
- AC50 [3]: 9.55 µM (active)

SMILES: O=C(c1ccccc1)N1CCN(c2cc(-c3ccccc3)nc3cc(-c4cccc(Cl)c4)nn23)CC1
- EC50 [22]: 1.05 µM (active) and 1.81 µM (active)
- EC50 [23]: 2.26 µM (active) and 4 µM (active)

SMILES: CC(C)CC(NC(=O)OCc1ccccc1)C(=O)NC(Cc1ccccc1)C(=O)CCl (stereo not drawn) (Cbz-Leu-Phe-CH2Cl; configuration not given here)
- IC50 (Vero [2]): 20.5 µM (active)
- CC50 (Vero [24]): 21.5 µM (active)
